Test results as given in the RepoRT retention time repository (doi:10.1021/pr300673x).

Assay: RP, 50 × 2.1 mm, 1.7 µm, 0.5 mL/min, estimated dead time 0.22 min; A: 98% water + 2% acetonitrile + 0.1% formic acid, pH 3; B: 2% water + 98% acetonitrile + 0.1% formic acid, pH 3; gradient (min/%B) 0/0 0.5/0 4/60 8/100 9/100 9.2/0 10/0
Conditions: stereoisomer not certain

Row | Compound | LC retention time
1 | CCCCCCCCCCCCCCCC(=O)OC(CC(=O)[O-])C[N+](C)(C)C (stereo not given) [palmitylcarnitine] | 6.15 min
2 | CCCCCCCCCCCCCCCCOCC(O)COP(=O)([O-])OCC[N+](C)(C)C (stereo not given) [PC(O-16:0/0:0)] | 6.42 min
3 | CC(=O)Cc1ccccc1 [phenylmethyl methyl ketone] | 3.31 min
4 | CCCCCCCCC=CCCCCCCCC(=O)OC(CC(=O)[O-])C[N+](C)(C)C (stereo not given) [oleoylcarnitine] | 6.24 min
5 | CCCCCCCCC=CCCCCCCCCCC(=O)OCC(O)COP(=O)([O-])OCC[N+](C)(C)C (stereo not given) [LysoPC(20:1)] | 6.88 min
6 | CC(CCC(=O)NCCS(=O)(=O)O)C1CCC2C3C(O)CC4CC(O)CCC4(C)C3CCC12C (stereo not given) [taurochenodeoxycholic acid (TCDCA)] | 3.89 min
7 | CCCCCC=CCC=CCC=CCC=CCCCC(=O)OCC(O)COP(=O)([O-])OCC[N+](C)(C)C (stereo not given) [LysoPC(20:4)] | 7.74 min
8 | CCCCCCCCCCCCCC=CC(O)C(COP(=O)(O)O)NC(=O)CCCCCCCCCCC (stereo not given) [CerP(d18:1/12:0)] | 7.37 min
9 | CCCCCC=CCC=CCCCCCCCC(=O)OC(CC(=O)[O-])C[N+](C)(C)C (stereo not given) [O-linoelaidylcarnitine] | 5.98 min
10 | CC(=CCCC(C)C1CCC2C3C(O)CC4CC(O)CCC4(C)C3CCC12C)C(=O)O (racemic) | 6.87 min
11 | [NH3+]C(Cc1ccccc1)C(=O)NC(Cc1ccccc1)C(=O)[O-] (stereo not given) [Phe-Phe] | 2.91 min
12 | C=CC1=C(C)C(=Cc2[nH]c(Cc3[nH]c(C=C4NC(=O)C(C)=C4C=C)c(C)c3CCC(=O)O)c(CCC(=O)O)c2C)NC1=O [4E,15Z-bilirubin IXa] | 7.62 min
13 | CC(=O)C(CCCCN)NS(=O)(=O)c1ccc(C)cc1 [N-tosyl-L-lysinyl methyl ketone] | 7.42 min

The remaining lines, values ahead:

Row | LC retention time | Compound
14 | 7.44 min | CCCCCC=CCC=CCCCCCCCC(=O)O [octadecadienoic acid]
15 | 4.79 min | CC(CCC(=O)NCC(=O)O)C1CCC2C3C(O)CC4CC(O)CCC4(C)C3CCC12C (stereo not given) [glycochenodeoxycholic acid (GCDCA)]
16 | 4.3 min | CC(CCC(=O)NCC(=O)O)C1CCC2C3C(O)CC4CC(O)CCC4(C)C3CC(O)C12C (stereo not given) [glycocholic acid (GCA)]
17 | 7.39 min | CCCCCCCCCCCCCCCCCC(O)CC(=O)O (stereo not given) [3-hydroxyeicosanoic acid]
18 | 0.883 min | NC(N)=NCCC(=O)O [3-guanidinopropionic acid]
19 | 4.28 min | NC(N)=NCCC[C@H](NCCC(=O)O)C(=O)O [L-N2-(2-carboxyethyl)arginine]
20 | 7.16 min | CCCCCCCCC=CCCCCCCCC(N)=O [oleamide]
21 | 4.78 min | CC(CCC(=O)O)C1CCC2C3CC(O)C4CC(O)CCC4(C)C3CCC12C (stereo not given)
22 | 4.28 min | CC(CCC(=O)NCC(=O)O)C1CCC2C3CCC4CC(O)CCC4(C)C3CC(O)C12C (stereo not given) [glycodeoxycholic acid (GDCA)]
23 | 7.42 min | C=CC1=C(C)C(=O)N=C1C=c1[nH]c(=Cc2[nH]c(CC3NC(=O)C(C=C)=C3C)c(C)c2CCC(=O)O)c(CCC(=O)O)c1C (stereo not given) [15,16-dihydrobiliverdin]
24 | 5.71 min | CCCCCCCCCC(=O)O[C@H](CC(=O)[O-])C[N+](C)(C)C [O-decanoyl-L-carnitine]
25 | 5.12 min | CCCCCCCC(=O)O[C@H](CC(=O)[O-])C[N+](C)(C)C [O-octanoyl-R-carnitine]
